Measurements taken from patent US20200223894A1, “PEPTIDES FOR THE TREATMENT OF CONDITIONS ASSOCIATED WITH ADIPONECTIN DYSFUNCTION” (AUCKLAND UNISERVICES LIMITED, priority 2017, published 2020).

T1: ERp44-adiponectin interaction (Mus musculus, UniProt Q9D1Q6)
T1 construct: from tissue; host or cells: adipose tissue of C57BL/6J mice on a high-fat diet, treated i.p. with the peptides
T1 sequence (Q9D1Q6 30-406): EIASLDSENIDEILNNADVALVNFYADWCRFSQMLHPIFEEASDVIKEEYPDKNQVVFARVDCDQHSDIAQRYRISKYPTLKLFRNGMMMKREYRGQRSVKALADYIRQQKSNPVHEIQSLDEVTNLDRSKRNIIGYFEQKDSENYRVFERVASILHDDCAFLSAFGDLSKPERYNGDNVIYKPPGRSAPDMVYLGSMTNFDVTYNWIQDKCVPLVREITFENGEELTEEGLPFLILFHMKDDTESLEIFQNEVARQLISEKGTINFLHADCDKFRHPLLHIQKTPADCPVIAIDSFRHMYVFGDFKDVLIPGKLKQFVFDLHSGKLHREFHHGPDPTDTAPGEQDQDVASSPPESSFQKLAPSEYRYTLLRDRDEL

T2: Recombinant mouse ERp44 (murine ERp44 without the signal sequence, monomeric fraction) (mouse, UniProt Q9D1Q6 30-406)
T2 construct: mature; Cloned into pET28b at the NheI and XhoI sites and expressed in E. coli; The monomer fraction from Superdex-200 was used; Free ERp44 is observed at 46,074 amu in ESI-MS; also called recombinant ERp44
T2 sequence (looked up): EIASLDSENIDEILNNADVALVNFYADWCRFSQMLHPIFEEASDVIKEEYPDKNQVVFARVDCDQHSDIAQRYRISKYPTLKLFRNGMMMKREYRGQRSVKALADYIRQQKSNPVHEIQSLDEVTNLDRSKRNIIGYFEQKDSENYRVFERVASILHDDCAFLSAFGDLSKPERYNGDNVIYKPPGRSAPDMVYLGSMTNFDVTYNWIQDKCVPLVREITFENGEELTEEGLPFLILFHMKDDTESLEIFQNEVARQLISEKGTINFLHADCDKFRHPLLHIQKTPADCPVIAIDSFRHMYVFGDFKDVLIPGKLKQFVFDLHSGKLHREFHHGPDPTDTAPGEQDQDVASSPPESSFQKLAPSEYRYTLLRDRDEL


What was measured:
3T3-L1 adipocytes = experiment: Adiponectin levels and oligomeric distribution in conditioned media and cell lysate of peptide-treated adipocytes (Western blotting); format: cell-based, murine; conditions: for amount of HMW adiponectin in the cell lysate / sub-population of the hexametric adiponectin in the cell lysate: compared to IgM-derived cargo peptides; for HMW adiponectin level in conditioned media / hexamer adiponectin level in conditioned media / trimeric adiponectin level in conditioned media: non-reducing SDS-PAGE
Description: 3T3-L1 cells (ATCC #CL-173, Manassas, Va., USA) were cultured in Dulbecco's Modified Eagle Medium (DMEM) supplemented with 10% fetal bovine serum (FBS) and 1% penicillin-streptomycin-fungisone (PSF) at 37° C. and under 5% CO2 95% humidified air. For differentiation, the confluent 3T3-L1 cultures were supplemented with 10 μg/ml insulin, 0.25 μM dexamethasone and 0.5 mM isobutylmethylxanthine for two days, followed by incubation with 10 μg/ml insulin in the culture medium for another two days. Subsequently, cells were incubated in DMEM with 10% FBS that was changed every two days. Peptide treatment (200 nM in FBS-free medium) was performed in fully differentiated 3T3-L1 adipocyte cultures. After incubation for 24 h, cell lysates and the conditioned medium were collected for subsequent analyses.
(§1) Cells or adipose tissues were washed with phosphate buffer (137 mM NaCl, 2.7 mM KCl, 4.3 mM Na2HPO4, 1.47 mM KH2PO4, pH 7.4) and then solubilized in lysis buffer (25 mM Tris-HCl pH 7.5, 150 mM NaCl, 5 mM NaF, 1% sodium deoxycholate, 1% Nonidet P-40, 1% Triton X-100 plus protease inhibitor mixtures). Equal amounts of lysates (100 μg) were precleared with protein G (Thermo Fisher Scientific, Waltham, Mass., USA) and incubated overnight with specific antibodies at 4° C. with shaking.
(§2) After incubating with protein G for another four hours, the immune-complexes were precipitated by low-speed centrifugation, washed three times with lysis buffer, and eluted in SDS-PAGE sample buffer (50 mM Tris-HCl pH 6.8, 1% SDS, 5% glycerol, 3% β-mercaptomethanol, 0.01% bromophenal blue) or 0.1 M glycine HCl (pH 3.0) and then diluted with non-reducing sample buffer (1% SDS, 5% glycerol, 10 mM Tris-HCl pH6.8) for analyzing adiponectin monomers and oligomers by Western blotting.
Cell lysates, media or serum samples were incubated with non-reducing sample buffer at room temperature for 10 minutes and then separated by 4-20% gradient SDS-PAGE. After transferring to polyvinylidene difluoride (PVDF) membranes, immunoblotting was performed using an in-house antibody against murine adiponectin developed by Antibody and Immunoassay Services, HKU (http://www.pharma.hku.hk/sweb/antibody/PolyclonalAntibodyCont.php?polyclonal_no=60 0005), or antibodies against ERp44 (Santa Cruz Biotechnology, Santa Cruz, Calif.), DsbA-L (Abcam, Cambridge, Mass., USA). Protein bands were quantified by ImageJ and intensities were compared. All experiments were repeated at least six times.

[1] = tested on: C57/BL6 mice fed a high fat diet; experiment: Serum total and HMW adiponectin in high fat diet mice after acute peptide injection; format: in vivo, mouse; conditions: HFD mice, 10 mg/kg i.p.; for HMW form of adiponectin in serum: normalized to corresponding cargo peptide
Description: (§3) All experimental protocols were approved by the Committee on the Use of Live Animals for Teaching and Research of the University of Hong Kong and carried out in accordance with ARRIVE (Animal Research: Reporting of In Vivo Experiments) as well as institutional guidelines for the care and use of laboratory animals. Mice of the C57BL/6J background were housed in a room under controlled temperature (23±1° C.) with 12 hour light-dark cycles and free access to water and food. Mice were fed with either standard chow (STC; 3.07 kcal/g, LabDiet 5053, Purina Mills, Richmond, Ind., USA) or high-fat diet (HFD; 4.73 kcal/g containing 45% fat, 20% protein and 35% carbohydrate, D12451, Research diet, N.J., USA) starting from four-weeks old.
Immunoprecipitation and Western blotting studies were performed on serum adipose tissue samples obtained from mice as described above in Example 2. The serum was collected 24 hours after injection.
Mice were administered intraperitoneally with the peptides described in Table 2 (10 mg/kg body weight for acute studies at 16-weeks old or 5 mg/kg/day for four-week chronic treatment at 12-weeks old). Body weights of the animals were monitored on a weekly basis. Fasting blood glucose was determined after 16-hours food starvation (from 6:00 pm to 10:00 am) by a Accu-Check Advantage II Glucometer (Roche Diagnostics Mannheim, Germany). Fasting body fat mass was determined by the minispec Body Composition Analyzer (Bruker Optics Inc., Tex., USA). Circulating and tissue contents of lipids, including triglycerides and total cholesterols, were analyzed using LiquiColor® Triglycerides and Stanbio Cholesterol assay kits, respectively. Serum adiponectin concentrations were determined with an in-house ELISA kit as described (Wang et al., 2006 J Biol Chem 281: 16391-16400). Serum insulin levels were measured with an in-house mouse insulin ELISA kit (Cat No. 32100, http://www.pharma.hku.hk/sweb/antibody/ELISA.php). Homeostatic Model Assessment of […]

[2] = tested on: C57/BL6 mice fed a standard chow diet (STC) or high fat diet (HFD); experiment: Four-week chronic peptide treatment of mice on STC or HFD: insulin sensitivity and energy homeostasis; format: in vivo, mouse; conditions: 5 mg/kg/day i.p., four weeks; for HFD-induced hyperglycemia (fasting glucose levels): 16-hours fasting
Description: as §3
Mice were administered intraperitoneally with the peptides described in Table 2 (10 mg/kg body weight for acute studies at 16-weeks old or 5 mg/kg/day for four-week chronic treatment at 12-weeks old). Body weights of the animals were monitored on a weekly basis. Fasting blood glucose was determined after 16-hours food starvation (from 6:00 pm to 10:00 am) by a Accu-Check Advantage II Glucometer (Roche Diagnostics Mannheim, Germany). Fasting body fat mass was determined by the minispec Body Composition Analyzer (Bruker Optics Inc., Tex., USA). Circulating and tissue contents of lipids, including triglycerides and total cholesterols, were analyzed using LiquiColor® Triglycerides and Stanbio Cholesterol assay kits, respectively. Serum adiponectin concentrations were determined with an in-house ELISA kit as described (Wang et al., 2006 J Biol Chem 281: 16391-16400). Serum insulin levels were measured with an in-house mouse insulin ELISA kit (Cat No. 32100, http://www.pharma.hku.hk/sweb/antibody/ELISA.php). Homeostatic Model Assessment of
Insulin Resistance (HOMA-IR) was calculated as fasting insulin (μU/ml)×fasting glucose (mmol/L)/22.5 for comparison as described (Xu et al., 2013). All results were compared between mice treated with control and CPP peptides.

[3] = target: T1, ERp44-adiponectin interaction; experiment: ERp44-adiponectin interaction in mouse adipose tissue lysates by co-immunoprecipitation; format: in vivo; conditions: HFD mice
Description: as §1, §2
Cell lysates, media or serum samples were incubated with non-reducing sample buffer at room temperature for 10 minutes and then separated by 4-20% gradient SDS-PAGE. […] Protein bands were quantified by ImageJ and intensities were compared. […]

[4] = target: T2, Recombinant mouse ERp44 (murine ERp44 …); experiment: ESI-MS of ERp44 (43 uM) incubated with 10-fold excess peptide (430 uM), 4 days, pH 6.5; disulfide-linked complex
Description: (§4) Mass spectrometry was used to quantify the amount of disulfide linkage between ERp44 and the various peptides. For this purpose, ERp44 (43 μM) was incubated with 10-fold excess (430 μM) of individual peptide. All samples were incubated for 4 days in 20 mM MES, 150 mM NaCl at pH 6.5 and subsequently subjected to mass spectrometric analyses.
(§5) The column eluate was ionized in the electrospray source of a QSTAR-XL quadrupole time-of-flight mass spectrometer (Applied Biosystems, Foster City, Calif.). A TOF-MS scan from 400 to 1600 m/z was performed. The resulting data were de-convoluted into protein molecular masses using the Bayesian Protein Reconstruct Tool within Analyst QS 1.1 (Applied Biosystems).

[5] = target: T2, Recombinant mouse ERp44 (murine ERp44 …); experiment: ESI-MS, recombinant mouse ERp44 43 uM with 430 uM peptide, 4 days
Description: as §4, §5

[6] = 200 nM peptide, 24 h, cell lysate
[7] = 200 nM peptide, 24 h, conditioned media, vs corresponding non-CPP cargo peptide
[8] = serum 24 hours after injection, vs corresponding cargo peptide only group

| binding result [4] | Molecule | intracellular adiponectin levels (3T3-L1 adipocytes; [6]) | increase in total amount of adiponectin secreted in the media (3T3-L1 adipocytes; [7]) | amount of HMW adiponectin in the cell lysate (3T3-L1 adipocytes; 200 nM, cell lysate) | sub-population of the hexametric adiponectin in the cell lysate (3T3-L1 adipocytes; 200 nM, cell lysate) | HMW adiponectin level in conditioned media (3T3-L1 adipocytes; 200 nM, conditioned media) | hexamer adiponectin level in conditioned media (3T3-L1 adipocytes; 200 nM, conditioned media) | trimeric adiponectin level in conditioned media (3T3-L1 adipocytes; 200 nM, conditioned media) | increase in circulating concentration of adiponectin [1, 8] | HMW form of adiponectin in serum [1] | HFD-induced insulin resistance (calculated HOMA-IR) [2] | HFD-induced reduction of adiponectin concentrations in serum [2] | circulating cholesterol levels [2] | circulating triglyceride levels [2] | lipid (triglyceride) accumulation in livers [2] | HFD-induced hyperglycemia (fasting glucose levels) [2] | other results |
| --- | --- | --- | --- | --- | --- | --- | --- | --- | --- | --- | --- | --- | --- | --- | --- | --- | --- |
| binds | KGTCAGWMA (also called adiponectin derived peptide) [Adiponectin peptide (adiponectin-derived cargo peptide KGTCAGWMA)] |  |  |  |  |  |  |  |  |  |  |  |  |  |  |  |  |
| binds | GTCY [M1 (IgM-derived cargo peptide GTCY)] |  |  |  |  |  |  |  |  |  |  |  |  |  |  |  |  |

The next lines start with the molecule.

| Molecule | binding result [4] | intracellular adiponectin levels (3T3-L1 adipocytes; [6]) | increase in total amount of adiponectin secreted in the media (3T3-L1 adipocytes; [7]) | amount of HMW adiponectin in the cell lysate (3T3-L1 adipocytes; 200 nM, cell lysate) | sub-population of the hexametric adiponectin in the cell lysate (3T3-L1 adipocytes; 200 nM, cell lysate) | HMW adiponectin level in conditioned media (3T3-L1 adipocytes; 200 nM, conditioned media) | hexamer adiponectin level in conditioned media (3T3-L1 adipocytes; 200 nM, conditioned media) | trimeric adiponectin level in conditioned media (3T3-L1 adipocytes; 200 nM, conditioned media) | increase in circulating concentration of adiponectin [1, 8] | HMW form of adiponectin in serum [1] | HFD-induced insulin resistance (calculated HOMA-IR) [2] | HFD-induced reduction of adiponectin concentrations in serum [2] | circulating cholesterol levels [2] | circulating triglyceride levels [2] | lipid (triglyceride) accumulation in livers [2] | HFD-induced hyperglycemia (fasting glucose levels) [2] | other results |
| --- | --- | --- | --- | --- | --- | --- | --- | --- | --- | --- | --- | --- | --- | --- | --- | --- | --- |
| YGRKKKRRQQRRRDTGGTCY [CPP-M2] |  | decreased | ~53% | significantly increased | decreased | significantly elevated | significantly elevated | significantly elevated | ~34% | increased | significantly blocked | prevented the reduction | significantly reduced | significantly reduced | attenuated | significantly blocked |  |
| YGRKKKRRQQRRRGTCY [CPP-M1] |  | decreased | ~45% | significantly increased | decreased | significantly elevated | significantly elevated | significantly elevated | ~28% | increased | significantly blocked | prevented the reduction | significantly reduced | significantly reduced | attenuated | significantly blocked | body fat mass under HFD ([2]; compared to M1 cargo peptide): significantly decreased |
| YGRKKRRQQRRRKGTCAGWMA [CPP-adiponectin] |  | increased |  |  |  | significantly reduced |  | significantly reduced |  | significantly decreased |  |  |  |  |  |  | reduction of total amount of adiponectin in the conditioned media (3T3-L1 adipocytes; [7]): ~16%; oligomeric composition of adiponectin in the cell lysate (3T3-L1 adipocytes; 200 nM, cell lysate): shifted towards the trimer; decrease in circulating concentration of adiponectin [1, 8]: ~14%; amount of adiponectin bound to ERp44 in mouse adipose tissue [3]: significantly decreased |
| DTGGTCY [M2 (IgM-derived cargo peptide DTGGTCY)] |  |  |  |  |  |  |  |  |  |  |  |  |  |  |  |  | binding result [5]: binds |
